Test results reported in ChEMBL document CHEMBL2176898, “3-Alkoxy-1,2-Dioxolanes: Synthesis and Evaluation as Potential Antimalarial Agents” (ACS Med Chem Lett, 2011).
pIC50: −log10 of the molar value.

What follows are compounds tested on Plasmodium falciparum (assay: microbe, parasite or virus in culture). Details: NF54.
Description: Antimicrobial activity against Plasmodium falciparum NF54
Work on `CCCCOC1(C)CC(C)(C)OO1` (stereo unspecified) yielded a pIC50 of under 5.00. `CC1(C)CC(C)(OCC23CC4CC(CC(C4)C2)C3)OO1` (stereo unspecified) was tested, and the pIC50 was 6.54. For `CC1(OCCc2ccccc2)CC2(CCCCC2)OO1` (stereo unspecified), the pIC50 was 8.05. In the case of `CC1(OCC23CC4CC(CC(C4)C2)C3)CC2(CCCCC2)OO1` (stereo unspecified), the pIC50 was 7.46. `COC1(Cc2ccccc2)CC2(CCCCC2)OO1` (stereo unspecified) was tested, and the pIC50 was 6.47. With `COC1(Cc2ccccc2)CC(C)(C)OO1` (stereo unspecified) the pIC50 was 6.01. Work on `COC1(C2CCCCC2)CC2(CCCCC2)OO1` (stereo unspecified) yielded a pIC50 of 8.04. `CCCCC1(C)CC(C)(OCCC)OO1` (mixture of isomers) showed a pIC50 of under 5.40. Compound `CCCCC1(C)CC(C)(OCC23CC4CC(CC(C4)C2)C3)OO1` (mixture of isomers) has a pIC50 of 6.85. Compound `CCCCC1(C)CC(C)(OCCc2ccccc2)OO1` (mixture of isomers) has a pIC50 of 7.12. `C[C@H]1[C@H](OC(=O)CCC(=O)O)O[C@@H]2O[C@@]3(C)CC[C@H]4[C@H](C)CC[C@@H]1[C@@]24OO3` [ARTESUNATE] was tested, and the pIC50 was 8.60.
